Legend:
sorbitol dehydrogenase [1] = target: T1, sorbitol dehydrogenase (Ovis aries, UniProt P07846); test: in vitro inhibition of sorbitol dehydrogenase by sera from dosed rats; assay type: biochemical; details: sera from rats dosed with the compound (FIG. 5)
T1 sequence (P07846 1-354): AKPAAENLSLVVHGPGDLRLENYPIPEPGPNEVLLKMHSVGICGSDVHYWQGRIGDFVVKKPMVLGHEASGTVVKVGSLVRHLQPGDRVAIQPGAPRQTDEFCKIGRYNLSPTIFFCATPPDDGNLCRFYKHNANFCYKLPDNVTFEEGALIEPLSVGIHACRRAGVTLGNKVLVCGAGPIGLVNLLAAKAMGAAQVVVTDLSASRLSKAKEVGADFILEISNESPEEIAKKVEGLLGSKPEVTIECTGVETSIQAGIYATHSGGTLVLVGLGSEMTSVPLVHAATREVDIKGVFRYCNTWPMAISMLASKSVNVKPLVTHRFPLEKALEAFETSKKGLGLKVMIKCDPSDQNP
Experimental: (§1) Male Sprague-Dawley rats (350-400 g) were used for these experiments. Diabetes was induced in some of the rats by a tail vein injection of streptozocin, 85 mg/kg. Twenty-four hours later, 4 groups of diabetic rats were given a single dose of 4-[4-(N,N-dimethylsulfamoyl)-piperazino]-2-methylpyrimidine (10, 50, 100, or 300 mg/kg) by oral gavage. Animals were sacrificed 4-6 hours after dosing and blood and sciatic nerves were harvested. Tissues and cells were extracted with 6% perchloric acid.
(§2) SDH activity was measured by a modification of the method described by U. Gerlach, Methodology of Enzymatic Analyses, edited by H. U. Bergmeyer, 3, 112-117 (1983). Aliquots of sera or urine were added to the assay system, which had final concentrations of reagents of 0.1M potassium phosphate buffer, pH 7.4, 5 mM NAD, 20 mM sorbitol, and 0.7 units/ml of sorbitol dehydrogenase. After incubation for 10 minutes at room temperature, the average change in sample absorbance was determined at 340 nm. SDH activity was presented as milliOD340 units/minute (OD340 =optical density at 340 nm).

[2] = system: erythrocyte (red blood cell) fructose and sorbitol; test: erythrocyte fructose and sorbitol in streptozocin-diabetic rats after a single oral dose; assay type: in vivo, rat (male Sprague-Dawley); details: single oral dose 10, 50, 100 or 300 mg/kg
Experimental: as §1
(§3) Sorbitol in erythrocytes and nerves was measured by a modification of the method of R. S. Clements et al. (Science, 166: 1007-8, 1969). […] After incubation for 30 minutes at room temperature, sample fluorescence was determined on a fluorescence spectrophotometer with excitation at 366 nm and emission at 452 nm. After subtracting appropriate blanks, the amount of sorbitol in each sample was determined from a linear regression of sorbitol standards processed in the same manner as the tissue extracts.
(§4) Fructose was determined by a modification of the method described by M. Ameyama, Methods in Enzymology, 89: 20-25 (1982). […] After incubation for 60 minnutes at room temperature, sample fluorescence was determined on a fluorescence spectrophotometer with excitation at 560 nm and emission at 580 nm. […]

sorbitol dehydrogenase [3] = target: T1, sorbitol dehydrogenase; test: inhibition of sorbitol dehydrogenase in vitro (direct test); assay type: biochemical; details: tested directly on sorbitol dehydrogenase in vitro
Experimental: as §2
The IC50 values indicate the concentration at which fifty percent inhibition of sorbitol dehydrogenase in vitro was observed.

[4] = system: sciatic nerve fructose and sorbitol; test: sciatic nerve fructose and sorbitol in streptozocin-diabetic rats after a single oral dose; assay type: in vivo, rat (male Sprague-Dawley); details: single oral dose 10, 50, 100 or 300 mg/kg, 4-6 hours after dosing (FIG. 4)
Experimental: as §1, §3, §4

sorbitol dehydrogenase [5] = target: T1, sorbitol dehydrogenase; test: in vitro inhibition of sorbitol dehydrogenase by urine from dosed rats; assay type: biochemical
Experimental: as §2

Cc1nccc(N2CCN(S(=O)(=O)N(C)C)CC2)n1 [Compound 1, 4-[4-(N,N-dimethylsulfamoyl)-piperazino]-2-methylpyrimidine]
inhibition of SDH in vitro by sera from dosed rats (sorbitol dehydrogenase [1]): potently inhibited SDH in vitro in a dose dependent manner
erythrocyte (RBC) fructose ([2]; 4-6 hours after dosing (FIG. 1)): dose dependently lowered
erythrocyte sorbitol ([2]; 4-6 hours after dosing (FIG. 2)): dose dependently raised
IC50 (sorbitol dehydrogenase [3]): 500 µM
sciatic nerve sorbitol [4]: increase in sorbitol
inhibition of SDH with as little as 0.5 μl of urine (sorbitol dehydrogenase [5]; 0.5 μl of urine of dosed animals (FIG. 6)): strong inhibition
SDH inhibitory activity of urine compared with sera (sorbitol dehydrogenase [5]; urine (FIG. 6) compared with sera (FIG. 5)): even more potent source of SDH inhibitory activity
inhibition of SDH in vitro by urine of dosed animals (sorbitol dehydrogenase [5]; urine of animals dosed with the compound (FIG. 6)): potently inhibited SDH in vitro in a dose dependent manner

Source: patent US5728704A, “Substituted pyridmidines for control of diabetic complications” (Pfizer Inc., priority 1995, dated 1998)
